Source: article PMC11412900 (Molecular Psychiatry, 2024)

Legend:
SERT [1] = target: T1, SERT (Homo sapiens, UniProt P31645); test: Whole-cell patch clamp, transporter-mediated currents in HEK293 cells; type: cell-based; details: for EC50: clamped at −60 mV, N = 5, read-out: SERT-mediated inward current EC50; for SERT-mediated inward current Emax: normalized to current elicited by 5-HT 10 µM; for SERT substrate type: whole-cell patch clamp
T1 construct: YFP (yellow-fluorescent protein); expressed in transfected cells
Excerpt: Whole-cell patch clamping was used to measure the transporter-mediated currents and performed as previously described. […] Cells were continuously superfused by a DAD-12 superfusion system and an 8-tube perfusion manifold (ALA Scientific Instruments in Farmingdale, NY, USA), which allowed to apply a physiological external solution. The pipette solution mimics the internal ionic composition of a cell. […] Passive holding currents were subtracted, and the traces were filtered using a 50-Hz digital Gaussian low-pass filter for analysis purposes. Five independent experiments were performed.

SERT [2] = target: T1, SERT; test: Superfusion release assay of [3H]5-HT; type: cell-based
Description: Concentration-response release assays were performed using a superfusion assay. […] Afterwards, cells were manually and gently washed once with KHB, and superfused with KHB at a rate of 0.5 mL/min for 10 min at room temperature (RT), to establish a stable basal release. Three 2 min-fractions of basal release were collected in 10 mL counting vials before exposing cells to various concentrations of 5-MeO-pyr-T (five fractions). Subsequently, the cells were superfused with 1% SDS for three final fractions to determine total radioactivity present at cells at the end of the experiment. 2 mL of scintillation cocktail was added to each vial, radioactivity was measured and expressed as percentage of released radioactivity in relation to the total radioactivity present at the beginning of that fraction. Experiments were performed per triplicate for five independent experiments.

T1 sequence (P31645 whole entry): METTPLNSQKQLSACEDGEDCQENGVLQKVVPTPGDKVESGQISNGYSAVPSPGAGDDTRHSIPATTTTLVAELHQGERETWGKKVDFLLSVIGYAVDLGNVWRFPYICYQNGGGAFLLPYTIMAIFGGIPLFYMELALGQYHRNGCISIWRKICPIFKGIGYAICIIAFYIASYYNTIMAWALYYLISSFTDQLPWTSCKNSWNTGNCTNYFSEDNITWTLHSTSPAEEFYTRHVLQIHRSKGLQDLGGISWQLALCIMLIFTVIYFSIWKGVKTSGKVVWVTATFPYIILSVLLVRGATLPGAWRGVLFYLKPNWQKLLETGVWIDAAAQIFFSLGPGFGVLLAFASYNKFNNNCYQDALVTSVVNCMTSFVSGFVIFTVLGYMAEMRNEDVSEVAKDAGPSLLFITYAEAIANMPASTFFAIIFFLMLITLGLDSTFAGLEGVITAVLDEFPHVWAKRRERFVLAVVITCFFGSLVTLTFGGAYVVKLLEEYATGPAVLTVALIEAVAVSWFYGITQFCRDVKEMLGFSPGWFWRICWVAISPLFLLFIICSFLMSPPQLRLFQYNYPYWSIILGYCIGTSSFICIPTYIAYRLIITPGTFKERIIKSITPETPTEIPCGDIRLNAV

Row | Compound | EC50 (SERT [1]) [µM] | SERT-mediated inward current Emax (SERT [1]) | SERT substrate type (SERT [1]) | 5-HT releaser type (SERT [2]; peak of efflux vs positive control pCA) | EC50 (SERT [2]; read-out: 5-HT release EC50, superfusion, N = 5) [µM]
1 | CCN(CC)CCc1c[nH]c2ccc(OC)cc12 [5-MeO-DET] | 3.5 | 0.26 | partial SERT substrates | – | –
2 | CCN(C)CCc1c[nH]c2ccc(OC)cc12 [5-MeO-MET] | 13 | 0.46 | partial SERT substrates | – | –
3 | COc1ccc2[nH]cc(CCN3CCCC3)c2c1 [5-MeO-pyr-T] | 0.09 | 0.49 | partial SERT substrates | 5-HT partial releaser | 5.7 ± 1.59
